Key:
Experiment in all cases: β-arrestin based GPCR screen (PathHunter / GPCRmax), antagonist mode
168 GPCRs [1] = target: 168 GPCRs (Homo sapiens, UniProt O00574)
168 GPCRs [2] = target: 168 GPCRs (Homo sapiens, UniProt Q99500)
168 GPCRs [3] = target: 168 GPCRs (Homo sapiens, UniProt P55085)
168 GPCRs [4] = target: 168 GPCRs (Homo sapiens, UniProt P48146)
168 GPCRs [5] = target: 168 GPCRs (Homo sapiens, UniProt P30989)
168 GPCRs [6] = target: 168 GPCRs (Homo sapiens, UniProt Q9HC97)
168 GPCRs [7] = target: 168 GPCRs (Homo sapiens, UniProt P25116); conditions: F2F, Antagonist mode, 10 uM
168 GPCRs [8] = target: 168 GPCRs (Homo sapiens, UniProt P08908); conditions: HTR1A
168 GPCRs [9] = target: 168 GPCRs (Homo sapiens, UniProt P28336); conditions: NMBR
168 GPCRs [10] = target: 168 GPCRs (Homo sapiens, UniProt Q8TDS4); conditions: GPR109A
168 GPCRs [11] = target: 168 GPCRs (Homo sapiens, UniProt P41586); conditions: ADCYAP1R1, Antagonist
168 GPCRs [12] = target: 168 GPCRs (Homo sapiens, UniProt Q9P296); conditions: C5L2, Antagonist
168 GPCRs [13] = target: 168 GPCRs (Homo sapiens, UniProt P30874)
168 GPCRs [14] = target: 168 GPCRs (Homo sapiens, UniProt P16473); conditions: TSHR(L)
168 GPCRs [15] = target: 168 GPCRs (Homo sapiens, UniProt P41146)
168 GPCRs [16] = target: 168 GPCRs (Homo sapiens, UniProt P32249)
168 GPCRs [17] = target: 168 GPCRs (Homo sapiens, UniProt P21917)
168 GPCRs [18] = target: 168 GPCRs (Homo sapiens, UniProt P49146); conditions: NPY2R
168 GPCRs [19] = target: T1, 168 GPCRs (Homo sapiens, UniProt P30939); conditions: HTR1F
T1 sequence (P30939 1-366): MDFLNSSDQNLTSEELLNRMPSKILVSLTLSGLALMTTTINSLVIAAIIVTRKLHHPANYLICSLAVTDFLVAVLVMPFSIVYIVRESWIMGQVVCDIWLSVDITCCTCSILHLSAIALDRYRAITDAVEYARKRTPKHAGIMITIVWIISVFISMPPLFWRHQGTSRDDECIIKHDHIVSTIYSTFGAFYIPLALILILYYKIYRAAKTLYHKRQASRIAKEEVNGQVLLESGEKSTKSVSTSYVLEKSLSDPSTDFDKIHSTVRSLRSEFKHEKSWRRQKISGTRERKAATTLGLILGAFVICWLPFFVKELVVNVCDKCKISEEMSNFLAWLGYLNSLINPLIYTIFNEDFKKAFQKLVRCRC

168 GPCRs [20] = target: 168 GPCRs (Homo sapiens, UniProt P47900)
168 GPCRs (Homo sapiens, UniProt P47900), sequence (P47900 whole entry): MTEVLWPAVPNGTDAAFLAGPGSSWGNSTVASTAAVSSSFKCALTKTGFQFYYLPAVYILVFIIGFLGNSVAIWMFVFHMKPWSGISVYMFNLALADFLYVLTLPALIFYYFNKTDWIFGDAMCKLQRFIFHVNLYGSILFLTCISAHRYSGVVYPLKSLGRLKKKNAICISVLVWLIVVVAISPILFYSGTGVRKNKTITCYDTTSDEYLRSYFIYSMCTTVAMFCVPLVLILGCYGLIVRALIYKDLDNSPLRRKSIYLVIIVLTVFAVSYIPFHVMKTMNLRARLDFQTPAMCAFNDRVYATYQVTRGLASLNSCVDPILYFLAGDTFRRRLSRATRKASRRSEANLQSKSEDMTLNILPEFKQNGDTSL

168 GPCRs (Homo sapiens, UniProt P49146), sequence (P49146 whole entry): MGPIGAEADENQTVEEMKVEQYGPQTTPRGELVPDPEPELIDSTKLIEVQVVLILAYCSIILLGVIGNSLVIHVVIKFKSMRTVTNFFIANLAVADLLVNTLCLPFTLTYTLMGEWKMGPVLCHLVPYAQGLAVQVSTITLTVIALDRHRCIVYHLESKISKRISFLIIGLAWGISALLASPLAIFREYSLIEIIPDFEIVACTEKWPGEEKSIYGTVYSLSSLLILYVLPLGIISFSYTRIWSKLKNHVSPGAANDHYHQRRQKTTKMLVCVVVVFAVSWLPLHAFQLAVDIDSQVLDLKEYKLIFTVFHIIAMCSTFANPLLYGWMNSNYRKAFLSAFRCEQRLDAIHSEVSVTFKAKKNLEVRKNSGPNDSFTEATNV
168 GPCRs (Homo sapiens, UniProt P08908), sequence (P08908 whole entry): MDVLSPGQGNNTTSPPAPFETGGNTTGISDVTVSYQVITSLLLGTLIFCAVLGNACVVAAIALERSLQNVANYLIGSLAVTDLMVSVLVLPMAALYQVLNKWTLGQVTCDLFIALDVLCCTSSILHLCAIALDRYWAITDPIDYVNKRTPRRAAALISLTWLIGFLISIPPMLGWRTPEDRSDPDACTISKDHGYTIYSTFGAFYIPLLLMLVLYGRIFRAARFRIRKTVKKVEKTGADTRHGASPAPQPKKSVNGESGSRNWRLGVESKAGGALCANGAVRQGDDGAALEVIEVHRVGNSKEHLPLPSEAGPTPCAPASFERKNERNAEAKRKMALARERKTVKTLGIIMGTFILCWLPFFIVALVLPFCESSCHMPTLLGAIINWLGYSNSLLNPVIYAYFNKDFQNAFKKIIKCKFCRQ
168 GPCRs (Homo sapiens, UniProt Q9P296), sequence (Q9P296 whole entry): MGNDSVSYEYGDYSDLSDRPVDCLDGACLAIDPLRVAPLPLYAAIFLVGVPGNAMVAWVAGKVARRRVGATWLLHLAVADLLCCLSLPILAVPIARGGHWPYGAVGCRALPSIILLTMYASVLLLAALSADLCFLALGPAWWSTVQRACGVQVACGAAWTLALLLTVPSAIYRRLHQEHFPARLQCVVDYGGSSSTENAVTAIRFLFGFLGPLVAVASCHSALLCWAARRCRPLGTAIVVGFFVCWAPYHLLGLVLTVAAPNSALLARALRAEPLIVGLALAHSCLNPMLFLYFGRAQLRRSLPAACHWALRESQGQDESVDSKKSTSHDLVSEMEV
168 GPCRs (Homo sapiens, UniProt P41146), sequence (P41146 whole entry): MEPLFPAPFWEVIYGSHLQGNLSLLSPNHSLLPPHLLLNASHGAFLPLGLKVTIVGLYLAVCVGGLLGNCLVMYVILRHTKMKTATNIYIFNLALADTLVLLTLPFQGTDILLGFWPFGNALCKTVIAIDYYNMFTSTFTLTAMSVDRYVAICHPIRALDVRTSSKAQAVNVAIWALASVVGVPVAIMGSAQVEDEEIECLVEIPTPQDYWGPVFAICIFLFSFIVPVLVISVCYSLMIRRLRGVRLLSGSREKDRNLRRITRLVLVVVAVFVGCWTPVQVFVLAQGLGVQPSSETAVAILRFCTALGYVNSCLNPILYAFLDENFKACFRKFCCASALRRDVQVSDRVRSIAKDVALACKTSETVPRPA
168 GPCRs (Homo sapiens, UniProt Q9HC97), sequence (Q9HC97 whole entry): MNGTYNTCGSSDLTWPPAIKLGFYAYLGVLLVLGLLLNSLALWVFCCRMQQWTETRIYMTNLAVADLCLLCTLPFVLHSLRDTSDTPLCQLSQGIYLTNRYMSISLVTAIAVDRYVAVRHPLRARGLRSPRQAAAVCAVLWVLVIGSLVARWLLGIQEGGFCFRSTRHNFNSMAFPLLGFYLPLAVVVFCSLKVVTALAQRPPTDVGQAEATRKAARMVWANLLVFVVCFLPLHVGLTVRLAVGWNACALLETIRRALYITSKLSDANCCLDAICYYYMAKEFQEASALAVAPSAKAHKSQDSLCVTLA
168 GPCRs (Homo sapiens, UniProt P55085), sequence (P55085 26-397): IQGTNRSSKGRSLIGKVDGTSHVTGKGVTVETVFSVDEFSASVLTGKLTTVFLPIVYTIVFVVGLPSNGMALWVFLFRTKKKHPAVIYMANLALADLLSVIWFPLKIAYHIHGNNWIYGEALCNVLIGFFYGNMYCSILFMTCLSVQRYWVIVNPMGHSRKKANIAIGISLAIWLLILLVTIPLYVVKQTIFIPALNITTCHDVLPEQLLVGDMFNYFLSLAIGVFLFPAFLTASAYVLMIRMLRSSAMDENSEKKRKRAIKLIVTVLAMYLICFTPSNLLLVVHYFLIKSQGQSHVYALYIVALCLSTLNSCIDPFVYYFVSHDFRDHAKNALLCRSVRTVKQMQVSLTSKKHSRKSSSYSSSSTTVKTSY
168 GPCRs (Homo sapiens, UniProt Q8TDS4), sequence (Q8TDS4 whole entry): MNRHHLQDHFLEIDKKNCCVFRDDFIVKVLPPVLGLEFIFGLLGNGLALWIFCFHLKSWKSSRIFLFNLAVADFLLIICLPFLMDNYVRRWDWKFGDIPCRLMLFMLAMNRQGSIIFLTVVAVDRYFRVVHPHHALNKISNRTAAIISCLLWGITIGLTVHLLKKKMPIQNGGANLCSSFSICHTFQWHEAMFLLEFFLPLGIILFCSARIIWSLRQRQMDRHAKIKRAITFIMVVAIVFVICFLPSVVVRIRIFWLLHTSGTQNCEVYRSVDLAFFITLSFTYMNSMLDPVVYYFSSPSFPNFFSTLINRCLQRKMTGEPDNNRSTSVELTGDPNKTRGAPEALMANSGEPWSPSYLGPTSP
168 GPCRs (Homo sapiens, UniProt O00574), sequence (O00574 whole entry): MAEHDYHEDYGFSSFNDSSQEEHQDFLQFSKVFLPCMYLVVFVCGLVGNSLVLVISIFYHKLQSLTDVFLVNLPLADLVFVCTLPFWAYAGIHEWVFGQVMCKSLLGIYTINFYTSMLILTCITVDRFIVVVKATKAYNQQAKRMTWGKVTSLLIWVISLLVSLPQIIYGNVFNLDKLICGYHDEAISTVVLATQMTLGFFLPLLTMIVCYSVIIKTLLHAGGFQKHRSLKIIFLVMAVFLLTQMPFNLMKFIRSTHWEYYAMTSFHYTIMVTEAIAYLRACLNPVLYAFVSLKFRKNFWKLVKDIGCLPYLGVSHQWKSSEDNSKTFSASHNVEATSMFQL
168 GPCRs (Homo sapiens, UniProt P32249), sequence (P32249 whole entry): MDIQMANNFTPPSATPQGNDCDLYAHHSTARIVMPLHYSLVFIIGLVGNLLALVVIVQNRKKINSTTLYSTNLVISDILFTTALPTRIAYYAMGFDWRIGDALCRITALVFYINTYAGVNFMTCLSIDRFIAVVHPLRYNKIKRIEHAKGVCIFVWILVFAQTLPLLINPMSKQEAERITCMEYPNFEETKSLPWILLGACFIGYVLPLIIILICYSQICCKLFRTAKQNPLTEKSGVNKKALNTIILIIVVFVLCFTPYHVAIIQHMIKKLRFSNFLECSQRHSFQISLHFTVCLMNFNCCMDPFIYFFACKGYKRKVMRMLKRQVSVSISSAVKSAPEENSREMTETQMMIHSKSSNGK
168 GPCRs (Homo sapiens, UniProt P16473), sequence (P16473 21-764): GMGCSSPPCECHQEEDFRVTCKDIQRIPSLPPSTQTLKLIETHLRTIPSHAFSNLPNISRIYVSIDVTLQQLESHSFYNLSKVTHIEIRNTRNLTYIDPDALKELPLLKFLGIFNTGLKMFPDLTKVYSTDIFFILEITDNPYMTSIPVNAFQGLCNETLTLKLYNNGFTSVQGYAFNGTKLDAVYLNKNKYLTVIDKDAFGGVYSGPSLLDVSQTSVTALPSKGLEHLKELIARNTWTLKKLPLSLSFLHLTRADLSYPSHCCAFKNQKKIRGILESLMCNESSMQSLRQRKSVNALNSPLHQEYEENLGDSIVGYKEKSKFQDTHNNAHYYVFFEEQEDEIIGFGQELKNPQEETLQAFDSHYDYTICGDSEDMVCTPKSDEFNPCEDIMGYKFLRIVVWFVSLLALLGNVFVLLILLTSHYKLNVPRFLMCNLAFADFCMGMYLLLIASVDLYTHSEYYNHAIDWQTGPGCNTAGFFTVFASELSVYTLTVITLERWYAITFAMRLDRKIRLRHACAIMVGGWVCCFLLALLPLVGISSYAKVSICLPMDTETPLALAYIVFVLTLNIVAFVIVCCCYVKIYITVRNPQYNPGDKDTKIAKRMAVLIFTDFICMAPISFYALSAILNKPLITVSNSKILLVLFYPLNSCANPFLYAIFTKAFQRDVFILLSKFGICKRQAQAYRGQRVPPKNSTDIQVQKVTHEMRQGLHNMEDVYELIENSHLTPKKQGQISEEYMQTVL
168 GPCRs (Homo sapiens, UniProt Q99500), sequence (Q99500 whole entry): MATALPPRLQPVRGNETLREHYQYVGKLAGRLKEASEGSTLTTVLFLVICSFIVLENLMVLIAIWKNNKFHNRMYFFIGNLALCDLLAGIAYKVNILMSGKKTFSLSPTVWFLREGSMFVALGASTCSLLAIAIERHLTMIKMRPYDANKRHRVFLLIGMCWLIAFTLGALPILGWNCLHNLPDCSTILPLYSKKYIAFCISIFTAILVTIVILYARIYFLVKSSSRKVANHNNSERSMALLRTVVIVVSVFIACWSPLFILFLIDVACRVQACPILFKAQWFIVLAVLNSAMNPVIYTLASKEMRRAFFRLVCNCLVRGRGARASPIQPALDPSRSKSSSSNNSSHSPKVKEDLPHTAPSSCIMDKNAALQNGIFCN

Q: For `CNC(C)C(=O)c1ccc2c(c1)OCO2` (stereo not drawn) [methylone, 3,4-methylenedioxy-N-methylcathinone], which activity at 10 µM (168 GPCRs [1]; CXCR6, Antagonist mode, 10 uM) is on record?
A: The activity at 10 µM was 12.6%.

Q: And the activity at 1 µM (168 GPCRs [1]; CXCR6, Antagonist, 1 uM)?
A: Its activity at 1 µM is 27.2%.

Q: What about the activity at 10 µM (168 GPCRs [2]; EDG3, Antagonist mode, 10 uM) of the same compound?
A: Its activity at 10 µM is 13.6%.

Q: And the activity at 1 µM (168 GPCRs [2]; EDG3, Antagonist, 1 uM)?
A: Its activity at 1 µM is 25.8%.

Q: What about the activity at 10 µM (168 GPCRs [3]; F2RL1, Antagonist mode, 10 uM) of the same compound?
A: Its activity at 10 µM is 16.2%.

Q: What about the activity at 1 µM (168 GPCRs [3]; F2RL1, Antagonist, 1 uM) of the same compound?
A: Its activity at 1 µM is -26.8%.

Q: What about the activity at 10 µM (168 GPCRs [4]; NPBWR2, Antagonist mode, 10 uM) of the same compound?
A: The activity at 10 µM was -14%.

Q: What about the activity at 1 µM (168 GPCRs [4]; NPBWR2, Antagonist, 1 uM) of the same compound?
A: The activity at 1 µM was -14.1%.

Q: And the activity at 10 µM (168 GPCRs [5]; NTSR1, Antagonist mode, 10 uM)?
A: The activity at 10 µM was -1.7%.

Q: And the activity at 1 µM (168 GPCRs [5]; NTSR1, Antagonist, 1 uM)?
A: The activity at 1 µM was -0.7%.

Q: What about the activity at 10 µM (168 GPCRs [6]; GPR35, Antagonist mode, 10 uM) of the same compound?
A: Its activity at 10 µM is 7.3%.

Q: And the activity at 1 µM (168 GPCRs [6]; GPR35, Antagonist, 1 uM)?
A: The activity at 1 µM was 13.2%.

Q: And the activity at 10 µM (168 GPCRs [7])?
A: The activity at 10 µM was -11.4%.

Q: What about the activity at 10 µM (168 GPCRs [8]; Antagonist mode, 10 uM) of the same compound?
A: The activity at 10 µM was -6.4%.

Q: What about the activity at 1 µM (168 GPCRs [8]; Antagonist, 1 uM) of the same compound?
A: The activity at 1 µM was -5.2%.

Q: What about the activity at 10 µM (168 GPCRs [9]; Antagonist mode, 10 uM) of the same compound?
A: The activity at 10 µM was 13.2%.

Q: What about the activity at 1 µM (168 GPCRs [9]; Antagonist, 1 uM) of the same compound?
A: The activity at 1 µM was 10.3%.

Q: What about the activity at 10 µM (168 GPCRs [10]; Antagonist mode, 10 uM) of the same compound?
A: The activity at 10 µM was -0.3%.

Q: And the activity at 1 µM (168 GPCRs [10]; Antagonist, 1 uM)?
A: The activity at 1 µM was 1.4%.

Q: And the activity at 1 µM (168 GPCRs [11]; 1 uM)?
A: The activity at 1 µM was 13.6%.

Q: And the activity at 10 µM (168 GPCRs [11]; 10 uM)?
A: The activity at 10 µM was 12.5%.

Q: And the activity at 1 µM (168 GPCRs [12]; 1 uM)?
A: The activity at 1 µM was 10%.

Q: What about the activity at 10 µM (168 GPCRs [12]; 10 uM) of the same compound?
A: The activity at 10 µM was 1.4%.

Q: What about the activity at 10 µM (168 GPCRs [13]; SSTR2, Antagonist mode, 10 uM) of the same compound?
A: Its activity at 10 µM is -4.2%.

Q: What about the activity at 1 µM (168 GPCRs [13]; SSTR2, Antagonist, 1 uM) of the same compound?
A: The activity at 1 µM was -0.4%.

Q: And the activity at 10 µM (168 GPCRs [14]; Antagonist mode, 10 uM)?
A: Its activity at 10 µM is -6.6%.

Q: What about the activity at 1 µM (168 GPCRs [14]; Antagonist, 1 uM) of the same compound?
A: The activity at 1 µM was 6.1%.

Q: And the activity at 10 µM (168 GPCRs [15]; OPRL1, Antagonist mode, 10 uM)?
A: Its activity at 10 µM is 13.2%.

Q: And the activity at 1 µM (168 GPCRs [15]; OPRL1, Antagonist, 1 uM)?
A: The activity at 1 µM was 17.1%.

Q: And the activity at 10 µM (168 GPCRs [16]; EBI2, Antagonist mode, 10 uM)?
A: The activity at 10 µM was 2.6%.

Q: And the activity at 1 µM (168 GPCRs [16]; EBI2, Antagonist, 1 uM)?
A: Its activity at 1 µM is 0.6%.

Q: And the activity at 10 µM (168 GPCRs [17]; DRD4, Antagonist mode, 10 uM)?
A: The activity at 10 µM was 12.2%.

Q: And the activity at 1 µM (168 GPCRs [17]; DRD4, Antagonist, 1 uM)?
A: The activity at 1 µM was 8.4%.

Q: What about the activity at 10 µM (168 GPCRs [18]; Antagonist mode, 10 uM) of the same compound?
A: Its activity at 10 µM is 2%.

Q: What about the activity at 1 µM (168 GPCRs [18]; Antagonist, 1 uM) of the same compound?
A: The activity at 1 µM was 2.3%.

Q: What about the activity at 10 µM (168 GPCRs [19]; Antagonist mode, 10 uM) of the same compound?
A: Its activity at 10 µM is 9.2%.

Q: And the activity at 1 µM (168 GPCRs [19]; Antagonist, 1 uM)?
A: Its activity at 1 µM is 14.4%.

Q: And the activity at 10 µM (168 GPCRs [20]; P2RY1, Antagonist mode, 10 uM)?
A: Its activity at 10 µM is 14.9%.

Q: And the activity at 1 µM (168 GPCRs [20]; P2RY1, Antagonist, 1 uM)?
A: Its activity at 1 µM is 14.5%.

Source: patent US12343326B2, “Psychoactive medicines and their use for treating psychiatric and neurological conditions and disorders” (Transcend Therapeutics, Inc., priority 2021, dated 2025)
